From PMC4747407 (Oncotarget, 2015)
“Also recorded” adds a separate entry of the source.

Key:
[1] = system: Wnt1 (int-1) mammary tumors; assay: Wnt1 subcutaneous mammary tumor model; settings: E6201 40 mg/kg i.v. Q4Dx3; for tumor growth, single agent: E7449 100 mg/kg once daily, Wnt-C59 10 mg/kg once daily
Protocol: (§1) All studies were performed according to IACUC approved protocols. The general health of mice was monitored daily. Tumor volume was determined by caliper measurements (mm), using the formula (l x w^2)/2 = mm^3, where l and w refer to the larger and smaller perpendicular dimensions collected at each measurement. Tumor dimensions were recorded twice per week starting when tumors reached an approximate size of 100 to 150 mm^3. Body weights were recorded twice per week and relative body weight was calculated as follows: Relative body weight = (body weight on day of measurement/body weight on first day of treatment).
Tumor pieces cut to approximately 2 mm^3 in size were injected subcutaneously in female nude mice. Treatment was initiated approximately 9–10 days post-implantation of mice.

[2] = cited from earlier work
[3] = system: B16-F10 mouse melanoma isografts; assay: B16-F10 mouse melanoma isograft model, combination with TMZ; format: in vivo; settings: E7449 100 mg/kg or TMZ 50 mg/kg, oral once daily
Protocol: All studies were performed according to IACUC approved protocols. The general health of mice was monitored daily.
TMZ combination in B16-F10 isograft model: female C57BL/6 mice were inoculated subcutaneously with B16-F10 cells (2 × 10^5). Following randomization by body weight, drug treatment was initiated 1 day post-inoculation. […] TMZ was administered daily on days 1 to 5 at 50 mg/kg as a single agent or in combination. […] The control group was treated with vehicle (0.5% methyl cellulose in water). E7449 or vehicle was administered first and when dosing of all animals was complete TMZ was administered to animals receiving the combination.

Wnt1 model tumors = assay: Gene expression of Wnt-related genes in Wnt1 model tumors (mouse TLDA); format: in vivo; settings: 7 days of drug treatment
Protocol: (§2) Gene expression profiling was performed using a custom designed TaqMan® low density array (TLDA). Total RNA was isolated from cell lines using RNeasy Mini Kit (Qiagen) and from xenograft tumor FFPE tissue using RecoverAll Total Nucleic Acid Isolation (Ambion). Human and mouse, real-time qPCR TLDAs (384-well micro fluidic card) were designed with genes selected based on their involvement in Wnt signalling (see supplementary Tables 2 and 3 for lists of genes on TLDAs). cDNA was generated from total RNA using High Capacity cDNA Reverse Transcription kit (Life Technologies) or SuperScript® VILO™ Master Mix (Life Technologies). 100 ng cDNA was combined with TaqMan® Gene Expression Master Mix (Life Technologies) for the cell lines and TaqMan® Advanced FAST Master Mix (Life Technologies) for the xenograft tissue for each port (in duplicate). TLDAs were run based on recommended cycling times for each master mix. Ct values were calculated and imported into GeneData Analyst for further analysis. To calculate the ΔCts, gene expression was normalized to several housekeeping genes. Relative fold change was calculated by comparison to the DMSO or vehicle-treated controls for each sample. A student's t-test was used to calculate P-values and hierarchical clustering used Manhattan distance and complete linkage plotting of selected significant genes to generate heat maps.

SW480 cells [4] = assay: Western blot of Wnt/β-catenin pathway proteins in SW480 cells; format: cell-based, human; settings: 10 μmol/L, 24 h
Protocol: (§3) SW480, DLD-1 (Wnt-dependent) or RKO (Wnt-independent) cells were plated in 6-well plates and incubated overnight. Cells were treated with E7449, olaparib or XAV939 and incubated for various time periods prior to processing by SDS PAGE and western blot analysis. […] Following binding of appropriate secondary antibodies labeled with IRDye® (LI-COR), image analysis was performed with Image Studio software for the LI-COR Odyssey system (version 2.1.10).

DLD-1 cells = assay: Western blot of Wnt/β-catenin pathway proteins in DLD-1 cells; format: cell-based, human; settings: 24 h
Protocol: as §3

SW480 cells [5] = assay: Gene expression profiling of Wnt-related genes (TLDA qPCR) in SW480 cells; format: cell-based, human; settings: 3 μmol/L (XAV939 also 30 μmol/L), 72 h
Protocol: as §2

[6] = system: MX-1 human breast cancer xenografts; format: in vivo; settings: E7449 100 mg/kg oral once daily; carboplatin single i.v. dose 60 mg/kg
Protocol: as §1
Carboplatin combination in MX-1 orthotopic xenografts: female nude mice were implanted with MX-1 cells (0.5 × 10^6) in the thoracic mammary fat pad. Treatment started on day 3 when the average tumor size was approximately 50 mm^3. Carboplatin was administered as a single intravenous dose at 60 mg/kg on day 3 or 4.

tankyrase = settings: read-out: reported IC50 values for tankyrase inhibition; various assays; cited from earlier work
[7] = system: DNA repair mutant DT40 cell lines; assay: Proliferation assay in panel of isogenic DNA repair mutant DT40 cell lines (XTT); format: cell-based, avian; settings: versus wild type DT40
PARP2 = settings: read-out: reported IC50, PARP2; cited from earlier work
TNKS1/2 = system: TNKS1/2; parameters: method as in Wahlberg et al 48; settings: ref Wahlberg et al 48; cited from earlier work
wild type DT40 cells = assay: cells; settings: DT40, 48 h, read-out: IC50, cell proliferation, wild type DT40 cells
TNKS1 = settings: read-out: reported IC50, TNKS1; cited from earlier work

With `CCNc1cc(O)c2c(c1)/C=C/C[C@H](O)[C@H](O)C(=O)/C=C\[C@@H](C)[C@H](C)OC2=O` [E6201, reference compound] as the compound, how does the decreased body weight ([1]; recovered post-treatment) read?
The decreased body weight was under 10%.

What about the “tumor growth, single agent” value [1] of the same compound?
The value was “No antitumor activity”.

What does the source list for `CS(=O)(=O)c1ccc(-c2nnc(/C=C/c3nnc(-c4ccc(C#N)cc4)o3)n2-c2ccccc2Cl)nc1` [G007-LK]?
single agent antitumor activity [2]: inhibit tumor growth as a single agent in certain models; therapeutic window ([2]; in vivo): very narrow therapeutic window because of intestinal toxicity

Which “growth of subcutaneous tumors, single agent” value [3] does the source give for `Cn1nnc2c(C(N)=O)ncn2c1=O` [TMZ, temozolomide, reference compound] here?
The value was “moderately inhibited”.

With `Cc1cc(-c2ccc(CC(=O)Nc3ccc(-c4cccnc4)cc3)cc2)ccn1` [Wnt-C59, reference compound] as the compound, how does the “tumor growth, single agent” value [1] read?
Its value is “significant antitumor activity; also recorded: significantly inhibited tumor growth”.

And the “expression of Wnt-related genes CAR2, FZD9, LEF1, VIL1 in tumors” value (Wnt1 model tumors)?
The value was “significant alteration”.

Which results are given for `Oc1nc(-c2ccc(C(F)(F)F)cc2)nc2c1CSCC2` [XAV939]?
Cyclin D1 protein levels (SW480 cells [4]): modest decrease; axin2 protein level (SW480 cells [4]): Increased axin2; reduction of active (non-phosphorylated) β-catenin level (SW480 cells [4]): ~ 90%; reduction of total β-catenin level (SW480 cells [4]): ~75%; effect on levels of β-catenin (DLD-1 cells): robust effect on levels of β-catenin was not observed; expression of 6 E7449-responsive genes (NOS3, LGR5, LEF1, NKD1, CYR61, MMP7) (SW480 cells [5]): altered expression of these 6 genes in the same direction

Which “antitumor activity, single agent” value [6] does the source give for `N.N.O=C([O-])C1(C(=O)[O-])CCC1.[Pt+2]` [carboplatin, reference compound] here?
Its value is “modest, but statistically significant versus vehicle; also recorded: only modest antitumor activity”.

Which IC50 (tankyrase) does the source give for `NC(=O)c1cccc2cn(-c3ccc([C@@H]4CCCNC4)cc3)nc12` [niraparib] here?
Its IC50 is 600 nM.

For `O=C(c1cc(Cc2n[nH]c(=O)c3ccccc23)ccc1F)N1CCN(C(=O)C2CC2)CC1` [olaparib], which “sensitivity of DT40 cells lacking PARP expression” value [7] is on record?
The value was “A similar observation”.

What about the “Cyclin D1 protein levels” value (SW480 cells [4]) of the same compound?
Its value is “unaffected”.

And the axin2 protein level (SW480 cells [4])?
The axin2 protein level was “remained at basal levels”.

And the β-catenin protein levels (SW480 cells [4])?
Its β-catenin protein levels is “remained unchanged”.

And the “expression of 6 E7449-responsive genes (NOS3, LGR5, LEF1, NKD1, CYR61, MMP7)” value (SW480 cells [5])?
The value was “no effect or altered expression in the opposite direction”.

And the “binding to TNKS1/2 catalytic domain” value (TNKS1/2)?
The value was “no significant binding”.

And the IC50 (wild type DT40 cells)?
Its IC50 is 2100 nM.

Which “binding to TNKS1/2 catalytic domain” value (TNKS1/2) does the source give for `CNCc1ccc(-c2[nH]c3cc(F)cc4c3c2CCNC4=O)cc1` [rucaparib] here?
The value was “binding to the catalytic domain of multiple PARP family members including tankyrases”.

Which results are given for `C[C@]1(c2nc3c(C(N)=O)cccc3[nH]2)CCCN1` [veliparib]?
binding to TNKS1/2 catalytic domain (TNKS1/2): no significant binding; IC50 (tankyrase): […]
